# ChEMBL document CHEMBL6083177, “Targeting bromodomian-containing protein 8 (BRD8): An advanced tool to interrogate BRD8” (Eur J Med Chem, 2024)
# Legend:
# [1] = biological target: T1, Bromodomain-containing protein 9 (Homo sapiens, UniProt Q9H8M2); assay: Inhibition of BRD9 (unknown origin) by TR-FRET assay
# T1 sequence (Q9H8M2 whole entry): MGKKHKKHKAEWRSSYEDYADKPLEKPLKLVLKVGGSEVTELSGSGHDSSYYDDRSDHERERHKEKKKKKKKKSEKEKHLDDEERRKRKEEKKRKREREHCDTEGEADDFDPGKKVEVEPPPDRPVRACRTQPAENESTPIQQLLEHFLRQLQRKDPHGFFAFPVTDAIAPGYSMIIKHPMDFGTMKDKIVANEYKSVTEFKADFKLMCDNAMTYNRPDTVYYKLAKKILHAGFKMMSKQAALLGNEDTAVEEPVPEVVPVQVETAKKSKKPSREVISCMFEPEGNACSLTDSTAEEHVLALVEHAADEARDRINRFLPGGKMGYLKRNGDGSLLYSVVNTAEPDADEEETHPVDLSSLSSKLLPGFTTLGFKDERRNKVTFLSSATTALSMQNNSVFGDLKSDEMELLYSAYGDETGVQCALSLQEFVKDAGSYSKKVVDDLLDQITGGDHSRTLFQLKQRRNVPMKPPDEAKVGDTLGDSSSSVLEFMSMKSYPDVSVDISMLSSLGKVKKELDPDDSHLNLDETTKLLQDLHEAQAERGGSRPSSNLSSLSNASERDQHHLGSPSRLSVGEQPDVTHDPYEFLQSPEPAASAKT
# [2] = Inhibition of BRD8/BRD1 (unknown origin)
# [3] = Inhibition of BRD4/BRD1 (unknown origin)
# [4] = biological target: T2, Bromodomain-containing protein 1 (Homo sapiens, UniProt O95696); assay: Inhibition of BRD1 (unknown origin)
# T2 sequence (O95696 whole entry): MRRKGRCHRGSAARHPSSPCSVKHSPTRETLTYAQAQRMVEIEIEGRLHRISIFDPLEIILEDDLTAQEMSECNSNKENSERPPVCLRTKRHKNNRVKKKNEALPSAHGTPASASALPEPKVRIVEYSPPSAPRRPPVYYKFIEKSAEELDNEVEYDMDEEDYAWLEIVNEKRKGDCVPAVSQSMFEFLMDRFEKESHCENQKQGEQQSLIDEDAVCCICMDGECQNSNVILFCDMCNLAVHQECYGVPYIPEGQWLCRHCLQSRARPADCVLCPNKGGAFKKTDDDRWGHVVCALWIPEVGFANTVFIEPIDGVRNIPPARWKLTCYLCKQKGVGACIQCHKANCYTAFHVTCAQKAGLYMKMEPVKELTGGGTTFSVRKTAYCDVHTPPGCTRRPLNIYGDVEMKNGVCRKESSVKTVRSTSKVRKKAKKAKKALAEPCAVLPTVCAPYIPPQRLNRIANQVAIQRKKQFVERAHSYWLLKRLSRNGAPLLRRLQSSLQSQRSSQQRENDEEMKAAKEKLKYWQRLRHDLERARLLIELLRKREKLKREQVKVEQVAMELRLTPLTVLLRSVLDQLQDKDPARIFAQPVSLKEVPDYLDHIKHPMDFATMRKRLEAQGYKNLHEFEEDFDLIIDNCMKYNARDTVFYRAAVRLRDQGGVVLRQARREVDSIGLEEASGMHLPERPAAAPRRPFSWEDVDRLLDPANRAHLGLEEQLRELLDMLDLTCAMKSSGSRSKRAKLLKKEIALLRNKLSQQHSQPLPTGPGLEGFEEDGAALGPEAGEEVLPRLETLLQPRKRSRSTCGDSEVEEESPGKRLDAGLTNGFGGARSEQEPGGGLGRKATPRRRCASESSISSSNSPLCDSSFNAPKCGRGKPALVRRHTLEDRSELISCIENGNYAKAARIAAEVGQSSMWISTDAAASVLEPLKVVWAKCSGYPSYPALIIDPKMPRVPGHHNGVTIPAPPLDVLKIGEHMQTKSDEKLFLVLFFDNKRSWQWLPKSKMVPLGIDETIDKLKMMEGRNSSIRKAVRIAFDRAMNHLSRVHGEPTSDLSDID
# [5] = Inhibition of BRD8/BRD1 (unknown origin) by Alpha Screen assay
# [6] = Inhibition BRD9/BRD1 (unknown origin) by Alpha Screen assay
smiles,measurement,setting,value
COc1cc(-c2cn(C)c(=O)c3cc(F)ccc23)c(OC)cc1CN(C)C,IC50,[1],20 nM
same,IC50,[2],160 nM
same,IC50,[3],> 10000 nM
COc1cc(CN(C)C)cc(OC)c1-c1cn(C)c(=O)c2cnccc12,IC50,[1],> 10000 nM
same,IC50,[2],80 nM
same,IC50,[3],> 10000 nM
COc1cc(-c2cn(C)c(=O)c3cnccc23)c(OC)cc1CN1CC(N)C1,IC50,[4],490 nM
same,IC50,[1],< 10 nM
same,IC50,[3],7400 nM
COc1cc(CN(C)C)cc(OC)c1-c1cn(C)c(=O)c2cc(F)ccc12,IC50,[5],12 nM
same,IC50,[6],10000 nM
